# Source: PubChem BioAssay (NCI)
#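 These data come from cells grown in 96-well plates and exposed to compound for 48 hours at five concentrations. GI50 marks 50% less growth. TGI denotes the concentration required for complete inhibition of growth.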
# Assays:
# Assay in all cases: NCI-60 cell line screen, 48 h
# 786-0 renal = tested on: 786-0 renal
# A498 renal = tested on: A498 renal
# A549 NSCLC = tested on: A549 NSCLC
# ACHN renal = tested on: ACHN renal
# BT-549 breast = tested on: BT-549 breast
# CAKI-1 renal = tested on: CAKI-1 renal
# CCRF-CEM leukemia = tested on: CCRF-CEM leukemia
# DU-145 prostate = tested on: DU-145 prostate
# EKVX NSCLC = tested on: EKVX NSCLC
# HCC-2998 colon = tested on: HCC-2998 colon
# HCT-116 colon = tested on: HCT-116 colon
# HCT-15 colon = tested on: HCT-15 colon
# HL-60(TB) leukemia = tested on: HL-60(TB) leukemia
# HOP-62 NSCLC = tested on: HOP-62 NSCLC
# HOP-92 NSCLC = tested on: HOP-92 NSCLC
# HS 578T breast = tested on: HS 578T breast
# IGROV1 ovarian = tested on: IGROV1 ovarian
# K-562 leukemia = tested on: K-562 leukemia
# KM12 colon = tested on: KM12 colon
# LOX IMVI melanoma = tested on: LOX IMVI melanoma
# M14 melanoma = tested on: M14 melanoma
# MALME-3M melanoma = tested on: MALME-3M melanoma
# MCF7 breast = tested on: MCF7 breast
# MDA-MB-231 breast = tested on: MDA-MB-231 breast
# MDA-MB-435 = tested on: MDA-MB-435
# MDA-MB-468 breast = tested on: MDA-MB-468 breast
# MOLT-4 leukemia = tested on: MOLT-4 leukemia
# NCI-H226 lung = tested on: NCI-H226 lung
# NCI-H23 lung = tested on: NCI-H23 lung
# NCI-H460 lung = tested on: NCI-H460 lung
# NCI-H522 lung = tested on: NCI-H522 lung
# NCI/ADR-RES ovarian = tested on: NCI/ADR-RES ovarian
# OVCAR-3 ovarian = tested on: OVCAR-3 ovarian
# OVCAR-4 ovarian = tested on: OVCAR-4 ovarian
# OVCAR-5 ovarian = tested on: OVCAR-5 ovarian
# OVCAR-8 ovarian = tested on: OVCAR-8 ovarian
# PC-3 prostate = tested on: PC-3 prostate
# RPMI-8226 leukemia = tested on: RPMI-8226 leukemia
# RXF 393 renal = tested on: RXF 393 renal
# SF-268 CNS = tested on: SF-268 CNS
# SF-295 CNS = tested on: SF-295 CNS
# SF-539 CNS = tested on: SF-539 CNS
# SK-MEL-2 melanoma = tested on: SK-MEL-2 melanoma
# SK-MEL-28 melanoma = tested on: SK-MEL-28 melanoma
# SK-OV-3 ovarian = tested on: SK-OV-3 ovarian
# SN12C renal = tested on: SN12C renal
# SNB-19 CNS = tested on: SNB-19 CNS
# SNB-75 CNS = tested on: SNB-75 CNS
# SR leukemia = tested on: SR leukemia
# SW-620 colon = tested on: SW-620 colon
# T-47D breast = tested on: T-47D breast
# TK-10 renal = tested on: TK-10 renal
# U251 CNS = tested on: U251 CNS
# UACC-257 melanoma = tested on: UACC-257 melanoma
# UACC-62 melanoma = tested on: UACC-62 melanoma
# UO-31 renal = tested on: UO-31 renal
smiles,measurement,setting,value
COc1ccc(N(C)c2cc(C#N)nc3ccccc23)cc1/C=C/C(=O)NO,GI50,786-0 renal,< 0.01 µM
same,TGI,786-0 renal,15 µM
same,GI50,A498 renal,15.7 µM
same,TGI,A498 renal,54.2 µM
same,GI50,A549 NSCLC,< 0.01 µM
same,TGI,A549 NSCLC,22.4 µM
same,GI50,ACHN renal,< 0.01 µM
same,TGI,ACHN renal,11.7 µM
same,GI50,BT-549 breast,< 0.01 µM
same,TGI,BT-549 breast,1.91 µM
same,GI50,CAKI-1 renal,< 0.01 µM
same,TGI,CAKI-1 renal,6.22 µM
same,GI50,CCRF-CEM leukemia,< 0.01 µM
same,GI50,DU-145 prostate,< 0.01 µM
same,TGI,DU-145 prostate,16.8 µM
same,GI50,EKVX NSCLC,< 0.01 µM
same,TGI,EKVX NSCLC,13.5 µM
same,GI50,HCC-2998 colon,< 0.01 µM
same,TGI,HCC-2998 colon,< 0.01 µM
same,GI50,HCT-116 colon,< 0.01 µM
same,TGI,HCT-116 colon,1.39 µM
same,GI50,HCT-15 colon,< 0.01 µM
same,TGI,HCT-15 colon,19.7 µM
same,GI50,HL-60(TB) leukemia,< 0.01 µM
same,TGI,HL-60(TB) leukemia,< 0.01 µM
same,GI50,HOP-62 NSCLC,< 0.01 µM
same,TGI,HOP-62 NSCLC,15.3 µM
same,TGI,HOP-92 NSCLC,9.06 µM
same,GI50,HS 578T breast,< 0.01 µM
same,TGI,HS 578T breast,9.65 µM
same,GI50,IGROV1 ovarian,< 0.01 µM
same,TGI,IGROV1 ovarian,4.55 µM
same,GI50,K-562 leukemia,< 0.01 µM
same,TGI,K-562 leukemia,> 40.3 µM
same,GI50,KM12 colon,< 0.01 µM
same,TGI,KM12 colon,1.22 µM
same,GI50,LOX IMVI melanoma,< 0.01 µM
same,TGI,LOX IMVI melanoma,1.4 µM
same,GI50,M14 melanoma,< 0.01 µM
same,TGI,M14 melanoma,1.86 µM
same,GI50,MALME-3M melanoma,< 0.01 µM
same,TGI,MALME-3M melanoma,8.74 µM
same,GI50,MCF7 breast,< 0.01 µM
same,TGI,MCF7 breast,17.4 µM
same,GI50,MDA-MB-231 breast,< 0.01 µM
same,TGI,MDA-MB-231 breast,< 0.01 µM
same,GI50,MDA-MB-435,< 0.01 µM
same,TGI,MDA-MB-435,< 0.01 µM
same,GI50,MDA-MB-468 breast,< 0.01 µM
same,TGI,MDA-MB-468 breast,< 0.01 µM
same,GI50,MOLT-4 leukemia,< 0.01 µM
same,TGI,MOLT-4 leukemia,> 35.9 µM
same,GI50,NCI-H226 lung,< 0.01 µM
same,TGI,NCI-H226 lung,5.82 µM
same,GI50,NCI-H23 lung,< 0.01 µM
same,TGI,NCI-H23 lung,1.25 µM
same,GI50,NCI-H460 lung,< 0.01 µM
same,TGI,NCI-H460 lung,3.65 µM
same,GI50,NCI-H522 lung,< 0.01 µM
same,TGI,NCI-H522 lung,< 0.01 µM
same,GI50,NCI/ADR-RES ovarian,< 0.01 µM
same,TGI,NCI/ADR-RES ovarian,< 0.01 µM
same,GI50,OVCAR-3 ovarian,< 0.01 µM
same,TGI,OVCAR-3 ovarian,6.18 µM
same,GI50,OVCAR-4 ovarian,1.19 µM
same,TGI,OVCAR-4 ovarian,16.9 µM
same,GI50,OVCAR-5 ovarian,< 0.01 µM
same,TGI,OVCAR-5 ovarian,10.7 µM
same,GI50,OVCAR-8 ovarian,< 0.01 µM
same,GI50,PC-3 prostate,< 0.01 µM
same,TGI,PC-3 prostate,> 40.8 µM
same,GI50,RPMI-8226 leukemia,< 0.01 µM
same,TGI,RPMI-8226 leukemia,19.2 µM
same,GI50,RXF 393 renal,< 0.0435 µM
same,TGI,RXF 393 renal,3.83 µM
same,GI50,SF-268 CNS,< 0.01 µM
same,TGI,SF-268 CNS,14.2 µM
same,GI50,SF-295 CNS,< 0.01 µM
same,GI50,SF-539 CNS,< 0.01 µM
same,TGI,SF-539 CNS,< 0.01 µM
same,GI50,SK-MEL-2 melanoma,< 0.01 µM
same,TGI,SK-MEL-2 melanoma,0.63 µM
same,GI50,SK-MEL-28 melanoma,0.551 µM
same,TGI,SK-MEL-28 melanoma,3.72 µM
same,GI50,SK-OV-3 ovarian,< 0.01 µM
same,TGI,SK-OV-3 ovarian,12.4 µM
same,GI50,SN12C renal,< 0.01 µM
same,TGI,SN12C renal,5.95 µM
same,GI50,SNB-19 CNS,< 0.01 µM
same,TGI,SNB-19 CNS,15.1 µM
same,GI50,SNB-75 CNS,< 0.01 µM
same,TGI,SNB-75 CNS,2.62 µM
same,GI50,SR leukemia,< 0.01 µM
same,GI50,SW-620 colon,< 0.01 µM
same,TGI,SW-620 colon,15.2 µM
same,GI50,T-47D breast,2.34 µM
same,TGI,T-47D breast,80.1 µM
same,GI50,TK-10 renal,2.22 µM
same,TGI,TK-10 renal,57.1 µM
same,GI50,U251 CNS,< 0.01 µM
same,TGI,U251 CNS,9.38 µM
same,GI50,UACC-257 melanoma,1.68 µM
same,TGI,UACC-257 melanoma,20.3 µM
same,GI50,UACC-62 melanoma,< 0.01 µM
same,TGI,UACC-62 melanoma,2.1 µM
same,GI50,UO-31 renal,< 0.01 µM
same,TGI,UO-31 renal,12.1 µM
